According to patent publication US20230404075A1, “RHIZOBIA SYMBIOSIS PROMOTING AGENT AND SYMBIOSIS PROMOTION METHOD” (TOYOTA JIDOSHA KABUSHIKI KAISHA, priority 2020, published 2023):

Key:
[1] = system: Miyakogusa (Lotus japonicus); test: Root nodule formation (number of infection threads, number of root nodules) in Miyakogusa inoculated with DsRED gene-bearing rhizobium; type: in vivo; settings: final concentration 10 μM or 100 μM, vs Non-addition (control)
Protocol: First, caffeic acid (Caffeic Acid, CAS RN: 331-39-5 C0002, Tokyo Chemical Industry Co., Ltd.) was dissolved in ethanol, thereby preparing a 100 mM stock solution. Next, about 300 mL of vermiculite was added to pots, entirely moistened with water, and then sterilized in an autoclave. Miyakogusa (Lotus japonicus) three to four days after sowing was transplanted into the pots, and 50 mL of B&D liquid medium (Broughton and Dilworth, 1971) containing a DsRED gene-bearing rhizobium (OD600=[…]; 1 mL) and caffeic acid (final concentration: 10 μM or 100 μM) was added.
Plants inoculated with the rhizobium were grown in an incubator (26° C.; 16 hr light/8 hr dark). The plants were dug up from the soil after one week and two weeks, and the number of infection threads and the number of root nodules were counted under a fluorescent stereomicroscope.
In FIG. 1, error bars in the graphs represent standard errors, and asterisks (*) indicate data with a significant difference (Dunnett method: p<0.05; n=10) compared to Non-addition (control).

[2] = system: soybean (Glycine max cv. Enrei); test: Biomass production and root nodule formation in soybean inoculated with rhizobia (Bradyrhizobium japonicum); type: in vivo; settings: 100 μM, vs Non-addition (control), Dunnett p<0.01, n=8
Protocol: In this Example, first, seeds of the soybean (Glycine max cv. Enrei) were placed on wet Kimwipes® for three to four days to germinate and then transferred to pots containing vermiculite (about 1.1 L) and grown for about three days in a plant incubator (28° C.; 16 hr light/8 hr dark). Next, a non-addition plot was prepared by adding rhizobia (Bradyrhizobium japonicum; OD600=0.1; 1 mL) to 50 ml of B&D medium. An addition plot was prepared by adding ferulic acid (final concentration: 100 μM) to 50 mL of B&D medium containing rhizobia. They were inoculated into the individual soybean plants. Soybean plants grown in the incubator for one week and two weeks were dug up from the pots, and their growth (aerial part length, underground part length, number of leaves) and number of root nodules were measured.
In FIGS. 4 and 5, error bars in the graphs represent standard errors, and asterisks (**) indicate data with a significant difference (Dunnett method: p<0.01; n=8) compared to Non-addition (control).

[3] = after two weeks, Dunnett p<0.05, n=10

Row | Compound | number of infection threads ([1]; after one week, Dunnett p<0.05, n=10) | number of root nodules [1, 3] | number of infection threads ([1]; after two weeks) | number of root nodules ([2]; soybean grown for one week) | aerial part length ([2]; soybean grown for two weeks) | number of root nodules ([2]; soybean grown for two weeks) | number of root nodules ([1]; after one week)
1 | O=C(O)/C=C/c1ccc(O)c(O)c1 [caffeic acid] | significant increase | tendency for the number of root nodules to increase | – | – | – | – | –
2 | COc1cc(/C=C/C(=O)O)ccc1O [ferulic acid, 3-methoxy-4-hydroxycinnamic acid] | – | significant increases | significant increases | significantly increased | significantly increased | significantly increased | –
3 | COc1cc(/C=C/C(=O)O)cc(OC)c1O [sinapinic acid, 3,5-Dimethoxy-4-hydroxycinnamic Acid] | – | – | significant increase | – | – | – | significant increase
